Measurements from ChEMBL document CHEMBL1629609, “Phenotypic and enzymatic comparative analysis of the novel KPC variant KPC-5 and its evolutionary variants, KPC-2 and KPC-4” (Antimicrob Agents Chemother, 2009).
Values after ≈ are worked out from the molar mass of the structure shown.

Assays:
[1] = system: Enterobacter cancerogenus; test: Antibacterial activity against Enterobacter cancerogenus E624 harboring beta-lactamase KPC-4 by agar dilution method; format: functional
[2] = system: Escherichia coli; test: Antibacterial activity against Escherichia coli TOP10 by agar dilution method; format: functional
[3] = system: Escherichia coli; test: Antibacterial activity against Escherichia coli TOP10 harboring beta-lactamase KPC-2 by agar dilution method; format: functional
[4] = system: Escherichia coli; test: Antibacterial activity against Escherichia coli TOP10 harboring beta-lactamase KPC-4 by agar dilution method; format: functional
[5] = system: Escherichia coli; test: Antibacterial activity against Escherichia coli TOP10 harboring beta-lactamase KPC-5 by agar dilution method; format: functional
[6] = system: Escherichia coli; test: Metabolic stability in Escherichia coli TOP10 harboring beta-lactamase KPC-2 assessed as hydrolysis rate per mg of extracts at 100 uM after 5 mins by spectrophotometric analysis in presence of clavulanic acid; format: ADME, organism-based; details: in vivo
[7] = system: Escherichia coli; test: Metabolic stability in Escherichia coli TOP10 harboring beta-lactamase KPC-2 assessed as hydrolysis rate per mg of extracts at 100 uM after 5 mins by spectrophotometric analysis; format: ADME, organism-based; details: in vivo
[8] = system: Escherichia coli; test: Metabolic stability in Escherichia coli TOP10 harboring beta-lactamase KPC-4 assessed as hydrolysis rate per mg of extracts at 100 uM after 5 mins by spectrophotometric analysis; format: ADME, organism-based; details: in vivo
[9] = system: Escherichia coli; test: Metabolic stability in Escherichia coli TOP10 harboring beta-lactamase KPC-4 assessed as hydrolysis rate per mg of extracts at 100 uM after 5 mins by spectrophotometric analysis in presence of clavulanic acid; format: ADME, organism-based; details: in vivo
[10] = system: Escherichia coli; test: Metabolic stability in Escherichia coli TOP10 harboring beta-lactamase KPC-5 assessed as hydrolysis rate per mg of extracts at 100 uM after 5 mins by spectrophotometric analysis; format: ADME, organism-based; details: in vivo
[11] = system: Escherichia coli; test: Metabolic stability in Escherichia coli TOP10 harboring beta-lactamase KPC-5 assessed as hydrolysis rate per mg of extracts at 100 uM after 5 mins by spectrophotometric analysis in presence of clavulanic acid; format: ADME, organism-based; details: in vivo
[12] = system: Escherichia coli; test: Ratio of MIC for Escherichia coli TOP10 harboring beta-lactamase KPC-2 to MIC for Escherichia coli TOP10 harboring beta-lactamase KPC-4; format: functional
[13] = system: Escherichia coli; test: Ratio of MIC for Escherichia coli TOP10 harboring beta-lactamase KPC-2 to MIC for Escherichia coli TOP10 harboring beta-lactamase KPC-5; format: functional
[14] = system: Pseudomonas aeruginosa; test: Antibacterial activity against Pseudomonas aeruginosa PR100 harboring beta-lactamase KPC-2 by agar dilution method; format: functional
[15] = system: Pseudomonas aeruginosa; test: Antibacterial activity against Pseudomonas aeruginosa PR280 harboring beta-lactamase KPC-5 by agar dilution method; format: functional
[16] = system: Escherichia coli; test: Antibacterial activity against Escherichia coli TOP10 by agar dilution method in presence of clavulanic acid
[17] = system: Escherichia coli; test: Antibacterial activity against Escherichia coli TOP10 harboring beta-lactamase KPC-2 by agar dilution method in presence of clavulanic acid; format: functional
[18] = system: Escherichia coli; test: Antibacterial activity against Escherichia coli TOP10 harboring beta-lactamase KPC-4 by agar dilution method in presence of clavulanic acid; format: functional
[19] = system: Escherichia coli; test: Antibacterial activity against Escherichia coli TOP10 harboring beta-lactamase KPC-5 by agar dilution method in presence of clavulanic acid
[20] = system: Escherichia coli; test: Metabolic stability in Escherichia coli TOP10 harboring beta-lactamase KPC-2 assessed as hydrolysis rate per mg of extracts at 50 uM after 5 mins by spectrophotometric analysis; format: ADME, organism-based; details: in vivo
[21] = system: Escherichia coli; test: Metabolic stability in Escherichia coli TOP10 harboring beta-lactamase KPC-4 assessed as hydrolysis rate per mg of extracts at 50 uM after 5 mins by spectrophotometric analysis; format: ADME, organism-based; details: in vivo
[22] = system: Escherichia coli; test: Metabolic stability in Escherichia coli TOP10 harboring beta-lactamase KPC-5 assessed as hydrolysis rate per mg of extracts at 50 uM after 5 mins by spectrophotometric analysis; format: ADME, organism-based; details: in vivo
[23] = system: Pseudomonas aeruginosa; test: Antibacterial activity against Pseudomonas aeruginosa PR100 harboring beta-lactamase KPC-2 by agar dilution method in presence of Tazobactam; format: functional
[24] = system: Enterobacter cancerogenus; test: Antibacterial activity against Enterobacter cancerogenus E624 harboring beta-lactamase KPC-4 by agar dilution method in presence of Tazobactam; format: functional
[25] = system: Pseudomonas aeruginosa; test: Antibacterial activity against Pseudomonas aeruginosa PR280 harboring beta-lactamase KPC-5 by agar dilution method in presence of Tazobactam; format: functional
[26] = system: Escherichia coli; test: Antibacterial activity against Escherichia coli TOP10 by agar dilution method in presence of Tazobactam; format: functional
[27] = system: Escherichia coli; test: Antibacterial activity against Escherichia coli TOP10 harboring beta-lactamase KPC-2 by agar dilution method in presence of Tazobactam; format: functional
[28] = system: Escherichia coli; test: Antibacterial activity against Escherichia coli TOP10 harboring beta-lactamase KPC-4 by agar dilution method in presence of Tazobactam; format: functional
[29] = system: Escherichia coli; test: Antibacterial activity against Escherichia coli TOP10 harboring beta-lactamase KPC-5 by agar dilution method in presence of Tazobactam; format: functional

Structure (SMILES)	MIC [1] [µg/mL]	MIC [2] [µg/mL]	MIC [3] [µg/mL]	MIC [4] [µg/mL]	MIC [5] [µg/mL]	Stability [7] [nmol/min]	Stability [8] [nmol/min]	Stability [10] [nmol/min]	further results
C[C@@H](O)[C@H]1C(=O)N2C(C(=O)O)=C(S[C@@H]3CN[C@H](C(=O)Nc4cccc(C(=O)O)c4)C3)[C@H](C)[C@H]12	> 16	< 0.06	16 (≈ 33.6 µM)	2 (≈ 4.21 µM)	8 (≈ 16.8 µM)	–	–	–	–
CO/N=C(\C(=O)N[C@@H]1C(=O)N2C(C(=O)O)=C(COC(C)=O)CS[C@H]12)c1csc(N)n1 [CEFOTAXIME]	> 64	< 0.06	64 (≈ 141 µM)	64 (≈ 141 µM)	64 (≈ 141 µM)	1310	172	368	Stability [6]: 487 nmol/min; Stability [9]: 20 nmol/min; Stability [11]: 48 nmol/min
CO[C@@]1(NC(=O)Cc2cccs2)C(=O)N2C(C(=O)O)=C(COC(N)=O)CS[C@@H]21 [CEFOXITIN]	> 64	4 (≈ 9.36 µM)	32 (≈ 74.9 µM)	8 (≈ 18.7 µM)	16 (≈ 37.4 µM)	–	–	–	Ratio [12]: 4; Ratio [13]: 2
C[C@@H](O)[C@H]1C(=O)N2C(C(=O)O)=C(SCCN=CN)C[C@H]12 [IMIPENEM ANHYDROUS]	> 32	0.12 (≈ 0.401 µM)	16 (≈ 53.4 µM)	2 (≈ 6.68 µM)	4 (≈ 13.4 µM)	412	69	116	MIC [14]: > 64 µg/mL; MIC [15]: > 64 µg/mL; MIC [16]: 0.12 µg/mL; MIC [17]: 4 µg/mL; MIC [18]: < 0.06 µg/mL; MIC [19]: 0.12 µg/mL
CC(C)(O/N=C(\C(=O)N[C@@H]1C(=O)N2C(C(=O)[O-])=C(C[n+]3ccccc3)CS[C@H]12)c1csc(N)n1)C(=O)O [CEFTAZIDIME]	> 64	0.12 (≈ 0.22 µM)	32 (≈ 58.5 µM)	> 128	128 (≈ 234 µM)	–	–	–	MIC [14]: 64 µg/mL (≈ 117 µM); MIC [15]: 128 µg/mL (≈ 234 µM); Ratio [12]: 8; Stability [20]: 3 nmol/min; Stability [21]: 7 nmol/min; Stability [22]: 6 nmol/min
CO/N=C(\C(=O)N[C@@H]1C(=O)N2C(C(=O)[O-])=C(C[N+]3(C)CCCC3)CS[C@H]12)c1csc(N)n1	64 (≈ 133 µM)	< 0.06	16 (≈ 33.3 µM)	8 (≈ 16.6 µM)	–	–	–	–	–
CC(=O)OCC1=C(C(=O)O)N2C(=O)[C@@H](NC(=O)Cc3cccs3)[C@H]2SC1 [CEPHALOTHIN]	–	–	–	–	–	65	53	50	Stability [6]: 25 nmol/min; Stability [9]: 6 nmol/min; Stability [11]: 7 nmol/min
C[C@@H](O)[C@H]1C(=O)N2C(C(=O)O)=C(S[C@@H]3CN[C@H](C(=O)N(C)C)C3)[C@H](C)[C@H]12 [MEROPENEM]	> 32	< 0.06	8 (≈ 20.9 µM)	1 (≈ 2.61 µM)	–	–	–	–	–
C[C@H]1[C@H](NC(=O)/C(=N\OC(C)(C)C(=O)O)c2csc(N)n2)C(=O)N1S(=O)(=O)O [AZTREONAM]	> 64	< 0.12	> 128	> 128	> 128	–	–	–	–
CCN1CCN(C(=O)N[C@@H](C(=O)N[C@@H]2C(=O)N3[C@@H]2SC(C)(C)[C@@H]3C(=O)O)c2ccccc2)C(=O)C1=O [PIPERACILLIN]	–	–	–	–	–	–	–	–	MIC [23]: > 256 µg/mL; MIC [24]: > 64 µg/mL; MIC [25]: 128 µg/mL; MIC [26]: 1 µg/mL; MIC [27]: > 256 µg/mL; MIC [28]: 128 µg/mL; MIC [29]: > 256 µg/mL
